Values quoted from earlier work in patent US10912848B2, “Dual-purpose PAT/ultrasound contrast agent bound with nanoparticles containing drug and method for preparing same” (IMGT CO, LTD., priority 2014, dated 2021).
Like-named read-outs stand apart in the source and are kept apart here.

Conditions: 25° C.

volume of solvent required to dissolve 1 g of drug (H2O): 300 mL
volume of solvent required to dissolve 1 g of drug (ethanol): 5 mL
SMILES: CC(=O)Oc1ccccc1C(=O)O [aspirin]
